Target: T1, human GR (Homo sapiens, UniProt P04150)
T1 construct: naturally expresses the human GR; endogenous in cells
T1 sequence (P04150 1-777): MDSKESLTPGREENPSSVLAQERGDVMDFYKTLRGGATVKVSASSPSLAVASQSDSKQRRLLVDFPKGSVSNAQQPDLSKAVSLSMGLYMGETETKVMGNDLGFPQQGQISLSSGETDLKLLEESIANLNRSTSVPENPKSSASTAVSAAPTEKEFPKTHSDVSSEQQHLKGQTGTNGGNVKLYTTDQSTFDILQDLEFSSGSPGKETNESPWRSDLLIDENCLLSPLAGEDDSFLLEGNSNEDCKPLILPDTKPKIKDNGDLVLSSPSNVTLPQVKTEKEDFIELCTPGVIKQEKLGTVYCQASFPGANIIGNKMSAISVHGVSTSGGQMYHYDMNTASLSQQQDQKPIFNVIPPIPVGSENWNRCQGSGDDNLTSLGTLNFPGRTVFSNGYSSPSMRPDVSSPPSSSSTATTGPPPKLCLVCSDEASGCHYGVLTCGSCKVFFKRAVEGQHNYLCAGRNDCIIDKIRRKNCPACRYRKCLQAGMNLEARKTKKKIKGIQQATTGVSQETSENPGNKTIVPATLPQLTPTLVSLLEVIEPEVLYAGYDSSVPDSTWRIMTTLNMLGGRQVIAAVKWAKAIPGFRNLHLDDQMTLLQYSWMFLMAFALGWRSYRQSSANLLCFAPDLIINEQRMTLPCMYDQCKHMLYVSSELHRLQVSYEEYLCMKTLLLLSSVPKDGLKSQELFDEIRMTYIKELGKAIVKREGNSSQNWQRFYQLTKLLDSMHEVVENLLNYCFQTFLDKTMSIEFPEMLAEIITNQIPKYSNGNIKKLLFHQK
Experiment: Trans-activation modulation of glucocorticoid receptor (GRAMMER), MMTV-LUC reporter in A549 cells
Type: cell-based
Conditions: for Emax: A549, A549 cells, read-out: Transactivation A549 Cells Grammer Emax (%); for Emax / Transactivation A549 Cells Grammer Emax (%): Emax relative to the activity obtained with 300 nM dexamethasone; for EC50 / Transactivation A549 Cells Grammer Emax (%): A549 cells; for EC50: IP = inflection point, read-out: Transactivation A549 Cells Grammer IP
From the text: Trans-Activation Modulation of Glucocorticoid Receptor (GRAMMER)
This assay assesses the ability of test compounds to control transcription from the MMTV-LUC reporter gene in lung adenocarcinoma A549 cells or HeLa cells, a human […] cell line that naturally expresses the human GR. The assay measures induction of a modified MMTV LTR/promoter linked to the LUC reporter gene.
The routine transient assay consists of plating 7,000-25,000 cells/well of a white, clear-bottom 96-well plate. Alternatively, 384-well plates can be used at a cell concentration of 10,000/well. The media that the cells are plated in is “exponential growth medium” which consists of phenol red-free RPMI1640 containing 10% FBS, 4 mM L-glutamine, 20 mM HEPES, 10 ug/mL human insulin, and 20 ug/mL gentamicin. Incubator conditions are 37° C. and 5% C02. The transfection is done in batch mode. The cells are trypsinized and counted to the right cell number in the proper amount of fresh media. It is then gently mixed with the FuGene6/DNA 25 mix and plated onto the 96 or 384-well plate, all the wells receive 100 uL or 40 uL, respectively, of medium+lipid/DNA complex then incubated 37° C. overnight. The transfection cocktail consists of serum-free OptiMEM, FuGene6 reagent and DNA. The manufacturer's (Roche Biochemical) protocol for cocktail setup is as follows: The lipid to DNA ratio is approximately 2.5:1 and the incubation time is 20 min at room temperature. Sixteen to 24 h after transfection, the cells are treated with dexamethasone to a final concentration of 10 nM as well as the compound of interest, such that final DMSO (vehicle) concentration is equal to or less than 1%. Each plate also contains samples that are treated with 10 nM dexamethasone alone, which is used as the 100% activity control. The cells are exposed to the compounds for 24 h. After 24 h, the cells are lysed by a Promega cell culture lysis buffer for approximately 30 min and then the luciferase activity in the extracts is assayed in the 96-well format luminometer. In 384 well format, Steady-Glo (Promega) or Steady-Lite (PerkinElmer) can be used by adding an equal volume of reagent to the media present in each well. Activity induced by 10 nM dexamethasone alone is set at 100% activity. Antagonist activity is calculated by determining the decrease in dexamethasone-induced activity in response to compound treatment relative to samples that were treated with dexamethasone alone. Results are expressed as % inhibition of 10 nM dexamethasone activity or as fold of 10 nM dexamethasone activity. This transactivation assay can be performed in an agonist and antagonist mode to identify these different activities.
Activity of test compounds is calculated as the Emax relative to the activity obtained with 300 nM dexamethasone. […] The exemplified tissue selective glucocorticoid receptor modulators of the present invention display agonist activity in this assay of greater than 5% and less than 100%, and maximal transactivation activity less then maximal transrepression activity. The action of compounds is also tested in an antagonist mode (Anti-GRAMMER) in which the cells are treated with medium containing an agonist such as 10 nM DEX and the ability of agents to inhibit the activation by an agonist is measured.

SMILES | Emax [%] | EC50 [nM] | Transactivation A549 Cells Grammer Emax (%)
CC[C@]12Cc3cnn(-c4ccc(F)cc4)c3C=C1CC[C@@]2(O)CCc1ccc(F)cn1 [Example 19, (4aS,5R)-4a-Ethyl-1-(4-fluorophenyl)-5-[2-(5-fluoropyridin-2-yl)ethyl]-1,4,4a,5,6,7-hexahydrocyclopenta[f]indazol-5-ol] | 18 | 156 | –
CC[C@]12Cc3cnn(-c4ccccc4)c3C=C1CC[C@@]2(O)CCc1ccccc1C(N)=O [Example 20, 2-{2-[(4aS,5R)-4a-Ethyl-5-hydroxy-1-phenyl-1,4,4a,5,6,7-hexahydrocyclopenta[f]indazol-5-yl]ethyl}benzamide] | 51 | 45 | –
CC[C@]12Cc3cnn(-c4ccc(F)cc4)c3C=C1CC[C@@]2(O)CCc1cncc(F)c1 [Example 21, (4aS,5R)-4a-Ethyl-1-(4-fluorophenyl)-5-[2-(5-fluoropyridin-3-yl)ethyl]-1,4,4a,5,6,7-hexahydrocyclopenta[f]indazol-5-ol] | 31 | 76 | –
CC[C@]12Cc3cnn(-c4ccc(F)cc4)c3C=C1CC[C@@]2(O)CCc1ccccc1CCC(N)=O [Example 22, 3-(2-{2-[(4aS,5R)-4a-Ethyl-1-(4-fluorophenyl)-5-hydroxy-1,4,4a,5,6,7-hexahydrocyclopenta[f]indazol-5-yl]ethyl}phenyl)propanamide] | 28 | 123 | –
NC(=O)c1ccccc1CC[C@]1(O)CCC2=Cc3c(cnn3-c3ccc(F)cc3)C[C@@]21C1CC1 [Example 23, 2-{2-[(4aR,5R)-4a-Cyclopropyl-1-(4-fluorophenyl)-5-hydroxy-1,4,4a,5,6,7-hexahydrocyclopenta[f]indazol-5-yl]ethyl}benzamide] | 21 | 37 | –
NS(=O)(=O)c1ccccc1CC[C@]1(O)CCC2=Cc3c(cnn3-c3cccnc3)C[C@@]21C1CC1 [Example 24, 2-{2-[(4aR,5R)-4a-Cyclopropyl-5-hydroxy-1-(pyridin-3-yl)-1,4,4a,5,6,7-hexahydrocyclopenta[f]indazol-5-yl]ethyl}benzenesulfonamide] | 35 | 24 | –
CC[C@]12Cc3cnn(-c4ccc(F)cc4)c3C=C1CC[C@@]2(O)CCc1ccccc1C(O)C(N)=O (stereo partly drawn) [Example 25, 2-(2-{2-[(4aS,5R)-4a-Ethyl-1-(4-fluorophenyl)-5-hydroxy-1,4,4a,5,6,7-hexahydrocyclopenta[f]indazol-5-yl]ethyl}phenyl)-2-hydroxyacetamide] | – | 195 | 22
CC[C@]12Cc3cnn(-c4ccc(F)cc4)c3C=C1CC[C@@]2(O)CCc1ccccc1C(O)C(N)=O (stereo partly drawn) [Example 26, 2-(2-{2-[(4aS,5R)-4a-Ethyl-1-(4-fluorophenyl)-5-hydroxy-1,4,4a,5,6,7-hexahydrocyclopenta[f]indazol-5-yl]ethyl}phenyl)-2-hydroxyacetamide] | – | 161 | 58
N#Cc1ccccc1CC[C@]1(O)CCC2=Cc3c(cnn3-c3ccccc3)C[C@@]21C1CC1 [Example 27, 2-{2-[(4aR,5R)-4a-Cyclopropyl-5-hydroxy-1-phenyl-1,4,4a,5,6,7-hexahydrocyclopenta[f]indazol-5-yl]ethyl}benzonitrile] | 13 | 23 | –
N#Cc1c(F)cccc1CC[C@]1(O)CCC2=Cc3c(cnn3-c3ccccc3)C[C@@]21C1CC1 [Example 28, 2-{2-[(4aR,5R)-4a-Cyclopropyl-5-hydroxy-1-phenyl-1,4,4a,5,6,7-hexahydrocyclopenta[f]indazol-5-yl]ethyl}-6-fluorobenzonitrile] | 8 | 32 | –
NC(=O)c1ccccc1CC[C@]1(O)CCC2=Cc3c(cnn3-c3ccccc3)C[C@@]21C1CC1 [Example 29, 2-{2-[(4aR,5R)-4a-Cyclopropyl-5-hydroxy-1-phenyl-1,4,4a,5,6,7-hexahydrocyclopenta[f]indazol-5-yl]ethyl}benzamide] | 12 | 74 | –
N#Cc1ccccc1CC[C@]1(O)CCC2=Cc3c(cnn3-c3cccnc3)C[C@@]21C1CC1 [Example 30, 2-{2-[(4aR,5R)-4a-Cyclopropyl-5-hydroxy-1-(pyridin-3-yl)-1,4,4a,5,6,7-hexahydrocyclopenta[f]indazol-5-yl]ethyl}benzonitrile] | 4 | 126 | –
N#Cc1cccnc1CC[C@]1(O)CCC2=Cc3c(cnn3-c3ccc(F)cc3)C[C@@]21C1CC1 [Example 31, 2-{2-[(4aR,5R)-4a-Cyclopropyl-1-(4-fluorophenyl)-5-hydroxy-1,4,4a,5,6,7-hexahydrocyclopenta[f]indazol-5-yl]ethyl}pyridine-3-carbonitrile] | 24 | 9 | –
O[C@@]1(CCc2cc(C(F)(F)F)ccn2)CCC2=Cc3c(cnn3-c3ccc(F)cc3)C[C@@]21C1CC1 [Example 32, (4aR,5R)-4a-Cyclopropyl-1-(4-fluorophenyl)-5-{2-[4-(trifluoromethyl)pyridin-2-yl]ethyl}-1,4,4a,5,6,7-hexahydrocyclopenta[f]indazol-5-ol] | 11 | 65 | –
CC[C@]12Cc3cnn(-c4ccc(F)cc4)c3C=C1CC[C@@]2(O)CCc1cc(C)ccn1 [Example 33, (4aS,5R)-4a-Ethyl-1-(4-fluorophenyl)-5-[2-(4-methylpyridin-2-yl)ethyl]-1,4,4a,5,6,7-hexahydrocyclopenta[f]indazol-5-ol] | 27 | 72 | –
CC[C@]12Cc3cnn(-c4ccc(F)cc4)c3C=C1CC[C@@]2(O)CCc1cc(C(F)(F)F)ccn1 [Example 34, (4aS,5R)-4a-Ethyl-1-(4-fluorophenyl)-5-{2-[4-(trifluoromethyl)pyridin-2-yl]ethyl}-1,4,4a,5,6,7-hexahydrocyclopenta[f]indazol-5-ol] | 24 | 91 | –
N#Cc1ccnc(CC[C@]2(O)CCC3=Cc4c(cnn4-c4ccc(F)cc4)C[C@@]32C2CC2)c1 [Example 35, 2-{2-[(4aR,5R)-4a-Cyclopropyl-1-(4-fluorophenyl)-5-hydroxy-1,4,4a,5,6,7-hexahydrocyclopenta[f]indazol-5-yl]ethyl}pyridine-4-carbonitrile] | 17 | 25 | –
Cc1ccnc(CC[C@]2(O)CCC3=Cc4c(cnn4-c4ccc(F)cc4)C[C@@]32C2CC2)c1 [Example 36, (4aR,5R)-4a-Cyclopropyl-1-(4-fluorophenyl)-5-[2-(4-methylpyridin-2-yl)ethyl]-1,4,4a,5,6,7-hexahydrocyclopenta[f]indazol-5-ol] | 11 | 59 | –
CC[C@]12Cc3cnn(-c4ccc(F)cc4)c3C=C1CC[C@@]2(O)CCc1cccc(OC)c1C(N)=O [Example 37, 2-{2-[(4aS,5R)-4a-Ethyl-1-(4-fluorophenyl)-5-hydroxy-1,4,4a,5,6,7-hexahydrocyclopenta[f]indazol-5-yl]ethyl}-6-methoxybenzamide] | 49 | 10 | –
